In patent US6900244B2, “Anilino liver X-receptor modulators” (Pharmacia Corporation, priority 2002, dated 2005):

Row | SMILES | melting point [°C]
1 | CCOC(=O)CC(C)Nc1ccc(C(O)(C(F)(F)F)C(F)(F)F)cc1 (centres unmarked) [Example 1, Ethyl 3-({4-[2,2,2-trifluoro-1-hydroxy-1-(trifluoromethyl)ethyl]phenyl}amino)-butanoate] | 103
2 | CCOC(=O)C(C)(C)Nc1ccc(C(O)(C(F)(F)F)C(F)(F)F)cc1 [Example 3, Ethyl 2-methyl-N-{4-[2,2,2-trifluoro-1-hydroxy-1-(trifluoromethyl)ethyl]phenyl}-alaninate] | 93
3 | CCOC(=O)CN(CC(F)(F)F)c1ccc(C(O)(C(F)(F)F)C(F)(F)F)cc1 [Example 5, Ethyl N-(2,2,2-trifluoroethyl)-N-{4-[2,2,2-trifluoro-1-hydroxy-1-(trifluoromethyl)-ethyl]phenyl}glycinate] | 67
4 | CCOC(=O)CCN(C)c1ccc(C(O)(C(F)(F)F)C(F)(F)F)cc1 [Example 14, Ethyl N-methyl-N-{4-[2,2,2-trifluoro-1-hydroxy-1-(trifluoromethyl)ethyl]phenyl}-beta-alaninate] | 77
5 | CCOC(=O)CN(Cc1ccccc1)c1ccc(C(O)(C(F)(F)F)C(F)(F)F)cc1 [Example 19, Ethyl N-benzyl-N-{4-[2,2,2-trifluoro-1-hydroxy-1-(trifluoromethyl)ethyl]-phenyl}glycinate] | 116
6 | CCOC(=O)CN(Cc1ccccc1Cl)c1ccc(C(O)(C(F)(F)F)C(F)(F)F)cc1 [Example 21, Ethyl N-(2-chlorobenzyl)-N-{4-[2,2,2-trifluoro-1-hydroxy-1-(trifluoromethyl)ethyl]phenyl}glycinate] | 146
7 | CCOC(=O)CN(Cc1cccnc1)c1ccc(C(O)(C(F)(F)F)C(F)(F)F)cc1 [Example 22, Ethyl N-(pyridin-3-ylmethyl)-N-{4-[2,2,2-trifluoro-1-hydroxy-1-(trifluoromethyl)ethyl]phenyl}glycinate] | 55
8 | CCOC(=O)CN1CCCc2cc(C(O)(C(F)(F)F)C(F)(F)F)ccc21 [Example 31, Ethyl [6-[2,2,2-trifluoro-1-hydroxy-1-(trifluoromethyl)ethyl]-3,4-dihydroquinolin-1(2H)-yl]acetate] | 66.5
9 | CON(C)C(=O)CN(C)c1ccc(C(O)(C(F)(F)F)C(F)(F)F)cc1 [Example 32, N˜1˜-Methoxy-N˜1˜N˜2˜-dimethyl-N˜2˜-{4-[2,2,2-trifluoro-1-hydroxy-1-(trifluoromethyl)ethyl]phenyl}glycinamide] | 121
10 | CN(CC(=O)OCc1ccc(Cl)cc1)c1ccc(C(O)(C(F)(F)F)C(F)(F)F)cc1 [Example 35, 4-Chlorobenzyl N-methyl-N-{4-[2,2,2-trifluoro-1-hydroxy-1-(trifluoromethyl)-ethyl]phenyl}glycinate] | 66.5
11 | CN(CC(=O)N1CCOCC1)c1ccc(C(O)(C(F)(F)F)C(F)(F)F)cc1 [Example 38] | 149
12 | CN(CC(=O)N1CCCC1)c1ccc(C(O)(C(F)(F)F)C(F)(F)F)cc1 [Example 39] | 184
13 | CCOC(=O)CN(Cc1ccc(Cl)cc1Cl)c1ccc(C(O)(C(F)(F)F)C(F)(F)F)cc1 [Example 40, Ethyl N-(2,4-dichlorobenzyl)-N-{4-[2,2,2-trifluoro-1-hydroxy-1-(trifluoromethyl)ethyl]phenyl}glycinate] | 111
14 | CCOC(=O)CN(Cc1cccc(Cl)c1)c1ccc(C(O)(C(F)(F)F)C(F)(F)F)cc1 [Example 41, Ethyl N-(3-chlorobenzyl)-N-{4-[2,2,2-trifluoro-1-hydroxy-1-(trifluoromethyl)ethyl]phenyl}glycinate] | 81.5
15 | CCOC(=O)CN(Cc1ccc(OC)cc1)c1ccc(C(O)(C(F)(F)F)C(F)(F)F)cc1 [Example 43, Ethyl N-(4-methoxybenzyl)-N-{4-[2,2,2-trifluoro-1-hydroxy-1-(trifluoromethyl)ethyl]phenyl}glycinate] | 68
16 | CCOC(=O)C1(Nc2ccc(C(O)(C(F)(F)F)C(F)(F)F)cc2)CCC(C(C)(C)C)CC1 (centres unmarked) [Example 49, Ethyl 4-tert-butyl-1-({4-[2,2,2-trifluoro-1-hydroxy-1-(trifluoromethyl)ethyl]phenyl}amino)cyclohexanecarboxylate] | 107
17 | CCOC(=O)C1(Nc2ccc(C(O)(C(F)(F)F)C(F)(F)F)cc2)CCC(C)CC1 (centres unmarked) [Example 50, Ehyl 4-methyl-1-({4-[2,2,2-trifluoro-1-hydroxy-1-(trifluoromethyl)ethyl]phenyl}amino)cyclohexanecarboxylate] | 142.6
